From the NIST ThermoML archive (doi:10.1016/j.jct.2017.08.012) come the findings set out here.

The mass density is the mass of a sample divided by its volume.

The conditions of this data set: 101.33 kPa, Liquid, Vibrating tube method.

± gives the expanded uncertainty stated by the source.

Turning to `CCCCCC` [hexane], the mass density was found to be 659.4 ± 4.1 kg/m3 (293.15 K); 654.76 ± 4 kg/m3 (298.15 K); 650.21 ± 4 kg/m3 (303.15 K); 645.43 ± 4 kg/m3 (308.15 K); 640.75 ± 4 kg/m3 (313.15 K).
